ChEMBL document CHEMBL1123862, “Binding orientation of amphetamine and norfenfluramine analogues in the benzonorbornene and benzobicyclo[3.2.1]octane ring systems at the active site of phenylethanolamine N-methyltransferase (PNMT)” (J Med Chem, 1987)

T1: Phenylethanolamine N-methyltransferase (Bos taurus, UniProt P10938)
T1 sequence (P10938 whole entry): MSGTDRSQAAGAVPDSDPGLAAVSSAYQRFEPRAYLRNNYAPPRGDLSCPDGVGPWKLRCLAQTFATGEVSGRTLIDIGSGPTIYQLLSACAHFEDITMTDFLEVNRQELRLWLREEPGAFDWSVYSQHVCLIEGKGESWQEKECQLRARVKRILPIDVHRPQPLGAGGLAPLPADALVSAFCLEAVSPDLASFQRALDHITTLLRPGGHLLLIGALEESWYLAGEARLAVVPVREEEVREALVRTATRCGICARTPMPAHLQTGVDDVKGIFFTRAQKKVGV


Experiments:
[1] = target: T1, Phenylethanolamine N-methyltransferase; experiment: (§1) Inhibition of Phenylethylamine N-Methyltransferase (PNMT) using radiochemical assay
[2] = compound: N[C@@H]1C2CCC1c1cccc(C(F)(F)F)c1C2; experiment: as §1
[3] = compound: NC1C2CC[C@H]1c1ccccc12; experiment: as §1
[4] = compound: N[C@@H]1C2CCC1c1ccc(C(F)(F)F)cc1C2; experiment: as §1
[5] = compound: N[C@@H]1CC2CC1c1cccc(C(F)(F)F)c12; experiment: as §1
[6] = compound: N[C@H]1C2CCC1c1cc(C(F)(F)F)ccc12; experiment: as §1
[7] = compound: N[C@@H]1CC2CC1c1ccc(C(F)(F)F)cc12; experiment: as §1
[8] = compound: N[C@@H]1CC2C[C@@H]1c1ccccc12; experiment: as §1

| Molecule | Ki [1] | further results |
| --- | --- | --- |
| NC1CCc2ccccc2C1 (configuration not stated) | 15 µM | – |
| N[C@H]1C2CCC1c1ccc(C(F)(F)F)cc1C2 (some centres not stated) | 1800 µM | – |
| N[C@H]1C2CCC1c1c2cccc1C(F)(F)F (some centres not stated) | 12.1 µM | – |
| N[C@@H]1C2CCC1c1c(cccc1C(F)(F)F)C2 (some centres not stated) | 51.1 µM | – |
| N[C@@H]1CC2CC1c1c2cccc1C(F)(F)F (some centres not stated) | 350 µM | – |
| N[C@@H]1CC2CC1c1cc(C(F)(F)F)ccc12 (some centres not stated) | 204 µM | – |
| N[C@@H]1C2CCC1c1cc(C(F)(F)F)ccc1C2 (some centres not stated) | 31.8 µM | – |
| N[C@H]1C2CCC1c1c(cccc1C(F)(F)F)C2 (some centres not stated) | 191 µM | – |
| N[C@H]1C2CCC1c1ccccc1C2 (some centres not stated) | 8900 µM | – |
| NC1C2CC[C@H]1c1ccccc12 (some centres not stated) | 258 µM | – |
| N[C@@H]1CC2CCC1c1ccccc12 (some centres not stated) | 1300 µM | – |
| N[C@H]1C2CCC1c1cccc(C(F)(F)F)c1C2 (some centres not stated) | 1430 µM | – |
| N[C@@H]1C2CCC1c1ccccc1C2 (some centres not stated) | 106 µM | – |
| N[C@H]1C2CCC1c1cc(C(F)(F)F)ccc1C2 (some centres not stated) | 801 µM | – |
| Phenylethanolamine N-methyltransferase (Bos taurus), P10938 (protein) MSGTDRSQAAGAVPDSDPGLAAVSSAYQRFEPRAYLRNNYAPPRGDLSCPDGVGPWKLRCLAQTFATGEVSGRTLIDIGSGPTIYQLLSACAHFEDITMTDFLEVNRQELRLWLREEPGAFDWSVYSQHVCLIEGKGESWQEKECQLRARVKRILPIDVHRPQPLGAGGLAPLPADALVSAFCLEAVSPDLASFQRALDHITTLLRPGGHLLLIGALEESWYLAGEARLAVVPVREEEVREALVRTATRCGICARTPMPAHLQTGVDDVKGIFFTRAQKKVGV | – | Km [2]: 34.4 µM; Vmax [2]: 0.52 nmol/min/mg; Km [3]: 151 µM; Vmax [3]: 0.17 nmol/min/mg; Km [4]: 45.8 µM; Vmax [4]: 0.46 nmol/min/mg; Km [5]: 33 µM; Vmax [5]: 0.49 nmol/min/mg; Km [6]: 14.6 µM; Vmax [6]: 0.57 nmol/min/mg; Km [7]: 52 µM; Vmax [7]: 1.38 nmol/min/mg; Vmax [8]: 0.04 nmol/min/mg |
